Test results published in ChEMBL document CHEMBL3507680, “University of Dundee, Gates Library screen for HepG2 cell viability”.

Experiment: Human HepG2 cell viability assay in 384 well format
Type: toxicity, cell-based
Design: dose 125 nL, time 70.5 hour; cytotoxicity at 70.5 h: concentration not given beside the values
Settings: HepG2 cells, read-out: Inhibition

Structure (SMILES)	cytotoxicity at 70.5 h [%]
CC(C)(C)C(NC(=O)CCS(C)(=O)=O)c1ccc(F)cc1F (stereo not given)	-6.93
CC(C)(C)C(NC(=O)CCCS(C)(=O)=O)c1ccc(F)cc1F (stereo not given)	-0.26
COc1cccc2c1CCCCN2C(=O)c1oc(C)nc1C	0.154
CC(C)N(CC(=O)Nc1cccc(C#N)c1)C1CC1	-4.01
Cc1nc(CN(C)S(=O)(=O)c2ccccc2Br)no1	-3.75
CCc1noc(C(C)N2CCCN(Cc3noc(C4CC4)n3)CC2)n1 (stereo not given)	-13.5
Cc1cnn(CC(C)NCC(=O)Nc2ccc(Cl)cn2)c1 (stereo not given)	-2.39
CN(CC(=O)NC(C)(C)C)C(=O)c1cccn1CCc1ccccc1	5.51
Cc1ccc(-c2csc(-c3cccc(C(=O)O)c3)n2)cc1	19.5
COc1ccccc1OCCNC(=O)NCC(C)C	-12.4
NC(=O)CSc1ccccc1NCc1nc(Cc2ccccc2)no1	-6.14
Cc1cc(CNC(=O)NCC(O)c2cccc(F)c2)no1 (stereo not given)	-10.8
Cc1ccc(CN2CCC(CNC(=O)Cn3cncn3)CC2)cc1	-6.33
COc1ccc(CN2CCN(Cc3nccn3C)C(C)C2)cc1F (stereo not given)	-9.42
CC(C)CC1COCCN1C(=O)Cc1cccs1 (stereo not given)	-4.92
CCc1nc(CN(C)C2CCN(Cc3ccc(Cl)s3)C2)no1 (stereo not given)	8.41
Fc1ccc(CNCc2nnc3n2CC(C(F)(F)F)CC3)cc1 (stereo not given)	-13.6
CC(C(=O)Nc1sccc1C(N)=O)N(C)CCOc1ccccc1 (stereo not given)	-20.6
O=C(c1cn(-c2ccccc2C(F)(F)F)nn1)N1CCSCC1	-15.5
Cc1noc(C)c1CCC(=O)N1CCCCC1CNS(C)(=O)=O (stereo not given)	-7.67
Cc1ccc(C(=O)NCc2cccnc2-n2cncn2)cc1S(C)(=O)=O	17.5
CCSc1cc(C(=O)NC2CCN(C(=O)c3ccccc3)CC2)ccn1	-17.6

Structure (SMILES)	cytotoxicity at 70.5 h [%]
CN(C)c1ccc(C(=O)NCc2cccnc2-n2cncn2)cc1F	-17.5
O=S(=O)(Cc1ccccc1F)N1CCCC1c1nnc2n1CCCCC2 (stereo not given)	-6.25
O=C(c1cccnc1O)N1CCN(Cc2ccccc2F)CC1	17.4
O=C(c1ccn(-c2ccccc2Cl)n1)N1CCCSCC1	-3.62
Cc1cc(C)n(-c2cncc(NCCNS(C)(=O)=O)n2)n1	2.9
Cc1cc(C)n(-c2cncc(NCCNC(=O)c3cccnc3)n2)n1	-3.57
O=C(c1cn(-c2ccccc2Cl)nn1)N1CCN(CCO)CC1	-5.32
Cc1nc(CN(C)Cc2cc3c(cc2OC(F)F)OCO3)oc1C	4.89
Cc1noc(CCCC(=O)N2CCCCC2CNS(C)(=O)=O)n1 (stereo not given)	-9.36
COc1cccc(CCC(=O)N2CCN(Cc3noc(C)n3)CC2)c1	-0.347
CC(C)(C)OC(=O)NCC1CCCCN1Cc1ccncc1 (stereo not given)	-1.8
CCn1c(C)nnc1CN(C)C1CCN(Cc2sc(C)nc2C)C1 (stereo not given)	3.85
Cc1ccc(F)cc1NC(=O)CNc1cccc2c1CCCC2	-7.64
Cn1c(Nc2ccc(F)cc2)c(C#N)c(=O)n(C)c1=O	-4.76
COc1cc(Nc2c(C#N)c(=O)n(C)c(=O)n2C)cc(OC)c1	-6.16
Cc1ccc(Nc2c(C#N)c(=O)n(C)c(=O)n2C)cc1F	-4.93
CCC(CNC(=O)NCc1cc[nH]n1)N1CCCC1 (stereo not given)	-4.31
CC(C)(C)OC(=O)NCC1CCCCN1Cc1cccnc1 (stereo not given)	-0.715
CC1CCCN(C(=O)Cn2cc(I)cn2)C1 (stereo not given)	-3.76
CCC(C)(NCC(=O)NC(=O)NC)c1nc(C)cs1 (stereo not given)	-4.2
COc1ccc(C(=O)Cn2cnnc2[S+](C)[O-])cc1Cl (stereo not given)	-3.44
Cc1ccc(NC(=O)NC(C)c2nc[nH]n2)cc1Cl (stereo not given)	-3.17

Structure (SMILES)	cytotoxicity at 70.5 h [%]
C[S+]([O-])c1nncn1CC(=O)c1ccc(Br)cc1 (stereo not given)	-5.18
Cc1nn(C)c(N(C)C)c1CNCc1cnn(Cc2ccccc2)c1	-2.79
O=C(NCc1ccccn1)NCC(c1ccco1)N1CCCC1 (stereo not given)	-1.51
Cc1nc(CN2CCN(C(=O)CCc3cccc(Cl)c3)CC2)no1	13.5
O=S(=O)(c1ccc(Cl)cc1)N1CCN(CCCn2ccnc2)CC1	-1.12
Cc1nn(C)c(N(C)C)c1CNCc1cccc(Cl)c1	0.245
COc1ccc(CN(C)Cc2cccc(C#N)c2)c(OC)c1	-3.94
O=C(NCc1ccc(N2CCCC2)nc1)N1CCc2sccc2C1	-0.866
O=C(Nc1ccccn1)c1nc(N2CCCC2)ncc1Cl	-6.57
COc1cc(CN(C)C(=O)NCc2cccc3c2OCO3)ccc1SC	-6.35
COc1cc(CN(C)C(=O)NCc2nccs2)ccc1SC	-6.87
Cc1ccc(C(=O)NCCNS(C)(=O)=O)c(=O)[nH]1	-3.54
Cc1ccc(C(=O)NCCCS(C)(=O)=O)c(=O)[nH]1	15.4
CCOCCCNC(=O)N(C)Cc1ccc(SC)c(OC)c1	1.54
O=C(c1cc2c([nH]c1=O)CCC2)N1CCCC1c1ccc(F)cc1 (stereo not given)	-3.95
COCCN(CCC#N)S(=O)(=O)c1cc(F)cc(F)c1	3.86
COCCN(CCC#N)S(=O)(=O)c1ccc(F)cc1Cl	0.577
CC(C)n1c(C2CCCN(CC(N)=O)C2)nc2ccccc21 (stereo not given)	-1.68
CSc1cc2c(cc1NC(=O)NCc1ccco1)OCCO2	-5.54
N#Cc1ccc(CNC2CCN(CCc3ccncc3)CC2)cc1	-1.86
CC(CNC(=O)N1CCS(=O)(=O)CC1)Cc1cccs1 (stereo not given)	-1.72
CC(CNC(=O)N1CCN(c2ncccn2)CC1)Cc1cccs1 (stereo not given)	17.5

Structure (SMILES)	cytotoxicity at 70.5 h [%]
Oc1cccc(CNC2CCN(CCc3ccncc3)CC2)c1	-1.4
Fc1ccc(CNC2CCN(CCc3ccncc3)CC2)cc1F	-3.84
Cc1cccc(CNC2CCN(CCc3ccncc3)CC2)c1C	-3.09
CC(CNC(=O)N1CCC(CO)CC1)Cc1cccs1 (stereo not given)	-3.99
Cc1cnc(CN2CCCC(c3nc4ccccc4n3C(C)C)C2)o1 (stereo not given)	20.6
O=C1CCc2cc(OCCN3CCc4cncnc4C3)ccc2N1	-3.56
Cc1noc(C)c1CNc1cccc(C(=O)N2CCCC(O)C2)c1 (stereo not given)	-9.24
COc1ccc(CC(=O)N(C)C2CCN(C)C2=O)cc1F (stereo not given)	-6.33
Cc1ncsc1-c1nc(-c2cccc(CN3CCOCC3)c2)no1	-6.25
CCN(CC(=O)Nc1c(C)n[nH]c1C)CC(O)c1ccc(C)cc1 (stereo not given)	13.8
CSC1(CNc2ncc(Br)cn2)CCOCC1	-0.0448
Cc1n[nH]c(C2CN(CCCOc3ccc(F)cc3)CCO2)n1 (stereo not given)	-12.3
CC(C)Nc1ncccc1C(=O)NCc1ncc[nH]1	-1.28
CNC(=O)Cc1nc(CNc2ccc(SC)c(F)c2)cs1	-0.256
Cc1ccc(F)c(NCC(C)(C)S(C)(=O)=O)c1	-2.22
COc1ccc(F)c(NCC(C)(C)S(C)(=O)=O)c1	-4.68
CCN(C)S(=O)(=O)N(CC)Cc1cccc(-c2ccncc2)c1	-4.01
CCc1n[nH]c(C2CN(CCCOc3cccc(C)c3)CCO2)n1 (stereo not given)	-3.37
CCN(CC(=O)Nc1c(C)nn(C)c1C)CC(O)c1ccc(C)cc1 (stereo not given)	-5.69
